Data: patent publication US10933049B2, “Mobilizing agents and uses therefor” (The University of Queensland, priority 2015, dated 2021)
Entries after “also recorded” stand apart in the source; their conditions may differ.

Columns and labels:
B16 melanoma = B16 melanoma growth and survival in mice; type: in vivo; conditions: for survival (time until tumors reach maximal size): C3aRA vs vehicle
Description: (§1) WT or C3aR^−/− mice were injected subcutaneously (s.c.) with B16-F0 melanoma (2.5×10^5 cells/mouse) or MC38 colon carcinoma (1×10^6 cells/mouse); female BALB/c mice were injected into the mammary fat pad with 4T1 mammary carcinoma (5×10^5 cells/mouse). Tumor growth was monitored daily from day 5 after tumor cell injection. For some experiments, C57BL/63 mice received daily injections of either C3aR antagonist (SB290157; VDM Biochemicals, Bedford Heights, Ohio; diluted in saline, 1 mg/kg/day i.p.,), C5aR antagonist (PMX53; produced in-house; 1 mg/kg/day) or vehicle only (0.9% saline or 5% glucose solution) control, commencing once tumors became palpable (approx. day 7 after tumor cell injection). For most experiments, mice were euthanized at day 14 (or once the largest tumor reached an area of approx. 200 mm^2), blood was collected by cardiac puncture, tumors, spleen, draining lymph nodes (inguinal, axillary and brachial) and femurs excised for FACS or immunostaining; tumors were weighed. For ‘survival’ studies, the time taken for each tumor to reach a pre-determined size (150 mm^2) was recorded, then mice euthanized.

B16 melanoma cells [1] = experiment: Cell migration assay (scratch) of B16 cells; type: cell-based, murine; conditions: 10^-6 mol/L, 24 hours
Description: Cells were seeded at confluence (2×10^5 cells/cm^2) into a 24 well plate, adhered overnight and then confluent monolayers scratched with a pipette tip before being treated for 24 hours with C3aR agonist (10^−6 mol/L); control wells were incubated with medium alone or containing 5% FCS. Migration was quantified by measuring cell-free areas at day 0 and 24 hours using Image-J software (NIH, Bethesda, Md., USA).

B16 melanoma cells [2] = experiment: B16 tumor cell proliferation; type: cell-based, murine
C3aR = target: T1, C3aR (Mus musculus, UniProt O09047); experiment: Calcium mobilization in B16 cells; type: cell-based, murine; conditions: cultured B16 cells
T1 construct: endogenous in cells; host or cells: B16-F0 murine melanoma cells (ATCC CRL6322)
T1 sequence (O09047 1-477): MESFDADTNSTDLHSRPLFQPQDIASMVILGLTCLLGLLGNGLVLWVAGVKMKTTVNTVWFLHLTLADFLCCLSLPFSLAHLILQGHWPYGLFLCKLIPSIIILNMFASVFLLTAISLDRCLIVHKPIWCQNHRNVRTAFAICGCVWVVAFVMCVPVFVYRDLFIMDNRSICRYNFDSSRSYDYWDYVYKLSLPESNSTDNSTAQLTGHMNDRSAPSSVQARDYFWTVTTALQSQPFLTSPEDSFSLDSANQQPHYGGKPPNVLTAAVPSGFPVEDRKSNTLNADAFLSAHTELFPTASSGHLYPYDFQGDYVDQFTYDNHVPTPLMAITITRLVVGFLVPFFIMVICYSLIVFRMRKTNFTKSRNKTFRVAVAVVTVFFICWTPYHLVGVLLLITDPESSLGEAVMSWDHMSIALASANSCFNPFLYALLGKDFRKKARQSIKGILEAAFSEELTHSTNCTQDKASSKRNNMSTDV

[3] = tested on: ERK and AKT signaling pathways; experiment: Western analysis of ERK and AKT phosphorylation in B16 cells; type: cell-based, murine; conditions: cultured B16 cells, 0-60 min
Description: B16 cells were treated with recombinant human C3a (10 nM) or the selective mouse C3aR agonist WWGKKYRASKLGLAR [SEQ ID NO: 5] (Proctor et al., 2009; Wu et al., 2013) for the times indicated in the experiment. After treatment, crude protein extracts were obtained by disrupting the cells in RIPA lysis buffer. Samples were subjected to SDS-PAGE (Laemmli, 1970), then separated proteins electrotransferred (Towbin et al., 1979) to a PVDF membrane. Membranes were incubated with antibodies to anti-phospho-AKT, anti-total AKT (Cell Signaling, Danvers, Mass.), mouse anti-diphosphorylated ERK1/2 and rabbit anti-total ERK1/2 (Sigma-Aldrich) followed by fluorescently-labelled secondary antibodies (IR Dye 800CW-goat anti-mouse Ig and IR Dye 680LT anti-rabbit Ig; Li-Cor Biosciences). Immunoreactive bands were visualized by scanning on an Odyssey Imaging System (Li-Cor Biosciences) and the percentage phosphorylated protein relative to total protein determined using Odyssey V3.0 image analysis software.

4T1 mammary carcinoma = 4T1 mammary carcinoma growth in BALB/c mice; type: in vivo; conditions: female BALB/c mice, 1 mg/kg/day i.p. from day 0, vs saline
Description: as §1, with “For some experiments, C57BL/63 mice received daily injections of either C3aR antagonist (SB290157; VDM Biochemicals, Bedford Heights, Ohio; diluted in saline, 1 mg/kg/day i.p.,), C5aR antagonist (PMX53; produced in-house; 1 mg/kg/day) or vehicle only (0.9% saline or 5% glucose solution) control, commencing once tumors became palpable (approx. day 7 after tumor cell injection).” left out

leukocyte populations = experiment: Flow cytometric analysis of leukocyte populations in B16 tumor-bearing mice; type: in vivo; conditions: vs vehicle
Description: as §1
Single cell suspensions of blood, tumor, spleen and lymph node and bone marrow cell were prepared for surface staining with antibodies to mouse CD45, F4/80, CD11b, Ly6G, Gr-1, CD3, CD4, CD8a (all from Biolegend, San Diego, Calif.). Staining for Tregs was carried out using a FoxP3 Fix/Perm kit (BioLegend), according to manufacturer's instructions. For Th1, Th2, Th17 staining, cells were stimulated with phorbol 12-myristate 13-acetate (PMA; 50 ng/ml; Sigma) and ionomycin (1 μM; Sigma) in the presence of Brefeldin A (5 μg/ml; BioLegend) for 4 h at 37° C. After surface staining, cells were fixed and permeabilized for staining of intracellular cytokines; IL-4, IL-17A or IFN-γ (all from BioLegend). Flow cytometry was performed using an Accuri C6 flow cytometer (BD Biosciences) and data analysis with FlowJo software (Tree Star, Inc., Ashland, Oreg.). Details are provided in Supplemental Experimental Procedures.

CD11b+Ly6G+ neutrophils = experiment: Neutrophil mobilization by G-CSF in wild-type and C3aR-/- mice; type: in vivo; conditions: 120 μg/kg i.v., 2 hours
Description: Wild-type, or C3aR^−/− mice were injected i.v. with G-CSF (Lenograstim; 120 μg/kg), or vehicle (saline). Blood was collected after 2 hours, and CD11b+Ly6G+ neutrophils analyzed using flow cytometry for CD11b+ and Ly6G+.

[4] = established B16 melanoma, C57BL/6J mice, 1 mg/kg/day i.p. from day 7, vs vehicle

PMX53
reduction in tumor growth observed in C3aR-/- mice (B16 melanoma; C3aR-/- mice, B16 melanoma, 1 mg/kg/day s.c. once tumors palpable): not enhanced | melanoma growth (B16 melanoma; WT mice, B16 melanoma, 1 mg/kg/day s.c. once tumors palpable, vs vehicle): inhibited melanoma growth

WWGKKYRASKLGLAR (listed as Homo sapiens) [selective C3aR agonist]
cell migration (B16 melanoma cells [1]): significantly increased | tumor cell proliferation (B16 melanoma cells [2]): no significant effect | calcium mobilization response (C3aR): failed to initiate a calcium mobilization response | ERK and AKT signaling pathways [3]: activated

recombinant human C3a: recombinant human C3a used to stimulate B16 cells
calcium mobilization response (C3aR): failed to initiate a calcium mobilization response | ERK and AKT signaling pathways [3]: activated

N=C(N)NCCC[C@H](NC(=O)COCC(c1ccccc1)c1ccccc1)C(=O)O [SB290157, N^2-[(2,2-diphenylethoxy)acetyl]-1-arginine]
survival (time until tumors reach maximal size) (B16 melanoma; B16 melanoma): significantly improved | survival (time until tumors reach maximal size) (B16 melanoma; B16 melanoma, listed as C3aRA): increased survival | excised tumor weights (B16 melanoma; B16 melanoma, day 14, 1 mg/kg/day i.p. from day 7, vs vehicle): significantly smaller | tumor area (B16 melanoma; [4]): significantly smaller than in the vehicle-treated control group | tumor progression (B16 melanoma; [4]): dramatically retarded | tumor growth (4T1 mammary carcinoma): significant inhibition of tumor growth | Tregs (leukocyte populations; blood): reduction | neutrophils (leukocyte populations; blood): significant increase | MDSC (leukocyte populations; bone marrow): significantly lower | monocytes (leukocyte populations; bone marrow): significantly lower | neutrophils (leukocyte populations; bone marrow): significantly lower | Th2 cells (leukocyte populations; draining lymph nodes): significantly increased | macrophages (leukocyte populations; draining lymph nodes): not significantly different | monocytes (leukocyte populations; draining lymph nodes): not significantly different | neutrophils (leukocyte populations; draining lymph nodes): not significantly different | percentage of CD4+ T lymphocytes (leukocyte populations; draining lymph nodes): significantly increased | percentage of CD8+ T lymphocytes (leukocyte populations; draining lymph nodes): significantly increased | CD4+ lymphocytes (leukocyte populations; spleen): significantly higher | MDSC (leukocyte populations; spleen): significantly lower | Th2 cells (leukocyte populations; spleen): significant increases | Treg cells (leukocyte populations; spleen): significant increases | proportion of macrophages (leukocyte populations; spleen): not significantly altered | proportion of monocytes (leukocyte populations; spleen): not significantly altered | proportion of neutrophils (leukocyte populations; spleen): not significantly altered | total lymphocytes (leukocyte populations; spleen): significantly higher | percentage of CD4+ T lymphocytes (leukocyte populations; tumor tissue, 1 mg/kg/day): higher | percentage of Th1 subset (leukocyte populations; tumor tissue, 1 mg/kg/day): significantly increased | percentage of Th2 subset (leukocyte populations; tumor tissue, 1 mg/kg/day): significantly increased | percentage of Th17 subset (leukocyte populations; tumor tissue, 1 mg/kg/day): significantly increased | percentage of total T lymphocytes (leukocyte populations; tumor tissue, 1 mg/kg/day): higher | percentage of tumor-infiltrating neutrophils (leukocyte populations; tumor tissue, 1 mg/kg/day): increased | proportion of MDSC (leukocyte populations; tumor tissue, 1 mg/kg/day): not significantly altered | tumor-associated macrophages (leukocyte populations; tumor tissue, 1 mg/kg/day): reduced

B1: G-CSF: granulocyte-colony stimulating factor (Lenograstim), stem cell-mobilizing agent (protein, UniProt P09919 31-207, looked up)
Granulocyte …: TPLGPASSLPQSFLLKCLEQVRKIQGDGAALQEKLVSECATYKLCHPEELVLLGHSLGIPWAPLSSCPSQALQLAGCLSQLHSGLFLYQGLLQALEGISPELGPTLDTLQLDVADFATTIWQQMEELGMAPALQPTQGAMPAFASAFQRRAGGVLVASHLQSFLEVSYRVLRHLAQP
blood CD11b+Ly6G+ (anti-tumor) neutrophils in C3aR-/- mice compared with saline (CD11b+Ly6G+ neutrophils): significantly enhanced; also recorded: significant (P=0.0079) increase | mobilization of blood neutrophils, C3aR-/- compared with wild-type mice (CD11b+Ly6G+ neutrophils): significantly (P=0.0056) greater mobilization of neutrophils
